Patent publication US12378224B2 (Dong-A Socio Holdings Co., Ltd., priority 2016, dated 2025)

Each molecule was assayed against human MER (528-end) (Homo sapiens (Human), UniProt Q12866) (assay: HTRF Kinase Activity Biochemical Assay (KinEASE-TK)). Settings: 10 uM ATP.
Summary of the method: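 Recombinant human MER (528-end) phosphorylated biotin-TK peptide substrate, 1 h at room temperature. Reaction stopped with detection buffer containing 0.375 nM Eu3+-cryptate anti-TK antibody and 0.062 uM streptavidin-XL665, 1 h further. Activity taken as HTRF ratio 665/620 nm ×10,000, 340 nm excitation.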

human MER (528-end), sequence (Q12866 528-999 limits assumed): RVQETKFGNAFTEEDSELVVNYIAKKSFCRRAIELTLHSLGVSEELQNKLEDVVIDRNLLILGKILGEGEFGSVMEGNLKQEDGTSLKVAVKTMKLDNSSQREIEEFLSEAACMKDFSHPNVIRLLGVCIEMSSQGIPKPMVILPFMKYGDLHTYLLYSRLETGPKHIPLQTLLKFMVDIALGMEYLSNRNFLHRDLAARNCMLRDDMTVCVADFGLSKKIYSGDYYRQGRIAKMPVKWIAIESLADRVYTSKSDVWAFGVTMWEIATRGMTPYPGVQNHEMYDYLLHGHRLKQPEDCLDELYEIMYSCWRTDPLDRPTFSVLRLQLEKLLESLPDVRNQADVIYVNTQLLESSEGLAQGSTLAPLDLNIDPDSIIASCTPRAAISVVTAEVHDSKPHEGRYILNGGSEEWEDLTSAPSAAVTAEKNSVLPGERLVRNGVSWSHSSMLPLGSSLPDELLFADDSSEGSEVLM

Row | SMILES | IC50
1 | Cn1cc(-c2cnc(N)c(C(=O)N[C@@H]3CCN(C(=O)c4cccc(Oc5ccc(CN6CCC[C@@H]6CO)cc5)c4)C3)c2)cn1 [Example 447, 2-amino-N—((R)-1-(3-(4-(((R)-2-(hydroxymethyl)pyrrolidin-1-yl)methyl)phenoxy)benzoyl)pyrrolidin-3-yl)-5-(1-methyl-1H-pyrazol-4-yl)nicotinamide] | > 1000 nM
2 | CN1CCN(Cc2ccc(Oc3ccc(C(=O)N4CC[C@@H](NC(=O)c5cc(-c6cnn(C)c6)cnc5N)C4)cc3)cc2)CC1 [Example 448, (R)-2-amino-5-(1-methyl-1H-pyrazol-4-yl)-N-(1-(4-(4-((4-methylpiperazin-1-yl)methyl)phenoxy)benzoyl)pyrrolidin-3-yl)nicotinamide] | > 1000 nM
3 | Cn1cc(-c2cnc(N)c(C(=O)N[C@@H]3CCN(C(=O)c4ccc(Oc5ccc(CN6CCC[C@@H]6CO)cc5)cc4)C3)c2)cn1 [Example 449] | > 1000 nM
4 | Cn1cc(-c2cnc(N)c(C(=O)N[C@@H]3CCN(C(=O)c4cccc(-c5ccccc5)c4)C3)c2)cn1 [Example 450, (R)—N-(1-([1,1′-biphenyl]-3-carbonyl)pyrrolidin-3-yl)-2-amino-5-(1-methyl-1H-pyrazol-4-yl)nicotinamide] | > 1000 nM
5 | Cn1cc(-c2cnc(N)c(C(=O)N[C@@H]3CCN(C(=O)c4cccc(-c5cnn(C6CCNCC6)c5)c4)C3)c2)cn1 [Example 451, (R)-2-amino-5-(1-methyl-1H-pyrazol-4-yl)-N-(1-(3-(1-(piperidin-4-yl)-1H-pyrazol-4-yl)benzoyl)pyrrolidin-3-yl)nicotinamide] | > 1000 nM
6 | CN1CCN(C(=O)Cc2cccc(-c3cccc(C(=O)N4CC[C@@H](NC(=O)c5cc(-c6cnn(C)c6)cnc5N)C4)c3)c2)CC1 [Example 452, (R)-2-amino-5-(1-methyl-1H-pyrazol-4-yl)-N-(1-(3′-(2-(4-methylpiperazin-1-yl)-2-oxoethyl)-[1,1′-biphenyl]-3-carbonyl)pyrrolidin-3-yl)nicotinamide] | > 1000 nM
7 | CN1CCN(C(=O)Cc2ccc(-c3cccc(C(=O)N4CC[C@@H](NC(=O)c5cc(-c6cnn(C)c6)cnc5N)C4)c3)cc2)CC1 [Example 454, (R)-2-amino-5-(1-methyl-1H-pyrazol-4-yl)-N-(1-(4′-(2-(4-methylpiperazin-1-yl)-2-oxoethyl)-[1,1′-biphenyl]-3-carbonyl)pyrrolidin-3-yl)nicotinamide] | > 1000 nM
8 | CN1CCN(CCc2ccc(-c3cccc(C(=O)N4CC[C@@H](NC(=O)c5cc(-c6cnn(C)c6)cnc5N)C4)c3)cc2)CC1 [Example 455, (R)-2-amino-5-(1-methyl-1H-pyrazol-4-yl)-N-(1-(4′-(2-(4-methylpiperazin-1-yl)ethyl)-[1,1′-biphenyl]-3-carbonyl)pyrrolidin-3-yl)nicotinamide] | > 1000 nM
9 | Cn1cc(-c2cnc(N)c(C(=O)N[C@@H]3CCN(C(=O)c4cccc(-c5cccc(C(=O)O)c5)c4)C3)c2)cn1 [Example 456, (R)-3′-(3-(2-amino-5-(1-methyl-1H-pyrazol-4-yl)nicotinamido)pyrrolidine-1-carbonyl)-[1,1′-biphenyl]-3-carboxylic acid] | > 1000 nM
10 | Cn1cc(-c2cnc(N)c(C(=O)N[C@@H]3CCN(C(=O)c4nc(-c5ccccc5)oc4C(F)(F)F)C3)c2)cn1 [Example 458, (R)-2-amino-5-(1-methyl-1H-pyrazol-4-yl)-N-(1-(2-phenyl-5-(trifluoromethyl)oxazole-4-carbonyl)pyrrolidin-3-yl)nicotinamide] | > 1000 nM
11 | Cn1cc(-c2cnc(N)c(C(=O)N[C@@H]3CCN(C(=O)c4cccc(-c5cccc(Cn6cccn6)c5)c4)C3)c2)cn1 [Example 459, (R)—N-(1-(3′-((1H-pyrazol-1-yl)methyl)-[1,1′-biphenyl]-3-carbonyl)pyrrolidin-3-yl)-2-amino-5-(1-methyl-1H-pyrazol-4-yl)nicotinamide] | > 1000 nM
12 | Cn1cc(-c2cnc(N)c(C(=O)N[C@@H]3CCN(C(=O)c4cccc(-c5cccc(Cn6ccnc6)c5)c4)C3)c2)cn1 [Example 460, (R)—N-(1-(3′-((1H-imidazol-1-yl)methyl)-[1,1′-biphenyl]-3-carbonyl)pyrrolidin-3-yl)-2-amino-5-(1-methyl-1H-pyrazol-4-yl)nicotinamide] | > 1000 nM
13 | Cn1cc(-c2cnc(N)c(C(=O)N[C@@H]3CCN(C(=O)c4cccc(-c5cccc(CN6CCOCC6)c5)c4)C3)c2)cn1 [Example 461, (R)-2-amino-5-(1-methyl-1H-pyrazol-4-yl)-N-(1-(3′-(morpholinomethyl)-[1,1′-biphenyl]-3-carbonyl)pyrrolidin-3-yl)nicotinamide] | > 1000 nM
14 | Cn1cc(-c2cnc(N)c(C(=O)N[C@@H]3CCN(C(=O)c4cccc(-c5cccc(C(=O)N6CCSCC6)c5)c4)C3)c2)cn1 [Example 463, (R)-2-amino-5-(1-methyl-1H-pyrazol-4-yl)-N-(1-(3′-(thiomorpholine-4-carbonyl)-[1,1′-biphenyl]-3-carbonyl)pyrrolidin-3-yl)nicotinamide] | > 1000 nM
15 | Cn1cc(-c2cnc(N)c(C(=O)N[C@@H]3CCN(C(=O)c4cccc(-c5cccc(C(=O)N6CCNCC6)c5)c4)C3)c2)cn1 [Example 464, (R)-2-amino-5-(1-methyl-1H-pyrazol-4-yl)-N-(1-(3′-(piperazine-1-carbonyl)-[1,1′-biphenyl]-3-carbonyl)pyrrolidin-3-yl)nicotinamide] | > 1000 nM
16 | Cn1cc(-c2cnc(N)c(C(=O)N[C@@H]3CCN(C(=O)c4cccc(-c5ccc(C(=O)N6CCNCC6)cc5)c4)C3)c2)cn1 [Example 465, (R)-2-amino-5-(1-methyl-1H-pyrazol-4-yl)-N-(1-(4′-(piperazine-1-carbonyl)-[1,1′-biphenyl]-3-carbonyl)pyrrolidin-3-yl)nicotinamide] | > 1000 nM
17 | Cn1cc(-c2cnc(N)c(C(=O)N[C@@H]3CCN(C(=O)c4ccc(-c5cccc(C(=O)N6CCNCC6)c5)cc4)C3)c2)cn1 [Example 466, (R)-2-amino-5-(1-methyl-1H-pyrazol-4-yl)-N-(1-(3′-(piperazine-1-carbonyl)-[1,1′-biphenyl]-4-carbonyl)pyrrolidin-3-yl)nicotinamide] | 100 to 1000 nM
18 | Cn1cc(-c2cnc(N)c(C(=O)N[C@@H]3CCN(C(=O)c4ccc(-c5ccc(C(=O)N6CCNCC6)cc5)cc4)C3)c2)cn1 [Example 467, (R)-2-amino-5-(1-methyl-1H-pyrazol-4-yl)-N-(1-(4′-(piperazine-1-carbonyl)-[1,1′-biphenyl]-4-carbonyl)pyrrolidin-3-yl)nicotinamide] | > 1000 nM
19 | Cc1nn(C)cc1-c1cccc(C(=O)N2CC[C@@H](NC(=O)c3cc(-c4cnn(C)c4)cnc3N)C2)c1 [Example 469, (R)-2-amino-N-(1-(3-(1,3-dimethyl-1H-pyrazol-4-yl)benzoyl)pyrrolidin-3-yl)-5-(1-methyl-1H-pyrazol-4-yl)nicotinamide] | > 1000 nM
20 | Cn1cc(-c2cnc(N)c(C(=O)N[C@@H]3CCN(C(=O)c4cccc(-c5cnn(C6CCCC6)c5)c4)C3)c2)cn1 [Example 470, (R)-2-amino-N-(1-(3-(1-cyclopentyl-1H-pyrazol-4-yl)benzoyl)pyrrolidin-3-yl)-5-(1-methyl-1H-pyrazol-4-yl)nicotinamide] | > 1000 nM
21 | Cn1cc(-c2cnc(N)c(C(=O)N[C@@H]3CCN(C(=O)c4cccc(-c5cccnc5)c4)C3)c2)cn1 [Example 472, (R)-2-amino-5-(1-methyl-1H-pyrazol-4-yl)-N-(1-(3-(pyridin-3-yl)benzoyl)pyrrolidin-3-yl)nicotinamide] | > 1000 nM
22 | Cn1cc(-c2cnc(N)c(C(=O)N[C@@H]3CCN(C(=O)c4cccc(-c5ccncc5)c4)C3)c2)cn1 [Example 473, (R)-2-amino-5-(1-methyl-1H-pyrazol-4-yl)-N-(1-(3-(pyridin-4-yl)benzoyl)pyrrolidin-3-yl)nicotinamide] | > 1000 nM
23 | Cn1cc(-c2cnc(N)c(C(=O)N[C@@H]3CCN(C(=O)c4cccc(-c5cc6ccccc6s5)c4)C3)c2)cn1 [Example 474, (R)-2-amino-N-(1-(3-(benzo[b]thiophen-2-yl)benzoyl)pyrrolidin-3-yl)-5-(1-methyl-1H-pyrazol-4-yl)nicotinamide] | > 1000 nM
24 | CN1CCN(c2cccc(-c3cccc(C(=O)N4CC[C@@H](NC(=O)c5cc(-c6cnn(C)c6)cnc5N)C4)c3)c2)CC1 [Example 476, (R)-2-amino-5-(1-methyl-1H-pyrazol-4-yl)-N-(1-(3′-(4-methylpiperazin-1-yl)-[1,1′-biphenyl]-3-carbonyl)pyrrolidin-3-yl)nicotinamide] | > 1000 nM
25 | Cn1cc(-c2cnc(N)c(C(=O)N[C@@H]3CCN(C(=O)c4cccc(-c5ccccc5Cl)c4)C3)c2)cn1 [Example 478, (R)-2-amino-N-(1-(2′-chloro-[1,1′-biphenyl]-3-carbonyl)pyrrolidin-3-yl)-5-(1-methyl-1H-pyrazol-4-yl)nicotinamide] | > 1000 nM
26 | Cn1cc(-c2cnc(N)c(C(=O)N[C@@H]3CCN(C(=O)c4cccc(-c5cccc(Cl)c5)c4)C3)c2)cn1 [Example 479, (R)-2-amino-N-(1-(3′-chloro-[1,1′-biphenyl]-3-carbonyl)pyrrolidin-3-yl)-5-(1-methyl-1H-pyrazol-4-yl)nicotinamide] | > 1000 nM
27 | Cn1cc(-c2cnc(N)c(C(=O)N[C@@H]3CCN(C(=O)c4cccc(-c5ccnc(N6CCNCC6)c5)c4)C3)c2)cn1 [Example 480, (R)-2-amino-5-(1-methyl-1H-pyrazol-4-yl)-N-(1-(3-(2-(piperazin-1-yl)pyridin-4-yl)benzoyl)pyrrolidin-3-yl)nicotinamide] | > 1000 nM
28 | Cn1cc(-c2cnc(N)c(C(=O)N[C@@H]3CCN(C(=O)c4cccc(-c5cccc(NS(C)(=O)=O)c5)c4)C3)c2)cn1 [Example 481, (R)-2-amino-5-(1-methyl-1H-pyrazol-4-yl)-N-(1-(3′-(methylsulfonamido)-[1,1′-biphenyl]-3-carbonyl)pyrrolidin-3-yl)nicotinamide] | > 1000 nM
29 | Cc1ccc(C(=O)N2CC[C@@H](NC(=O)c3cc(-c4cnn(C)c4)cnc3N)C2)cc1-c1ccccc1 [Example 482, (R)-2-amino-5-(1-methyl-1H-pyrazol-4-yl)-N-(1-(6-methyl-[1,1′-biphenyl]-3-carbonyl)pyrrolidin-3-yl)nicotinamide] | > 1000 nM
